# Test results from patent US20220233561A1, “HUMAN MILK OLIGOSACCHARIDES FOR USE IN THE TREATMENT OF SYMPTOMS IN A PATIENT SUFFERING FROM NON-COELIAC WHEAT AND / OR GLUTEN SENSITIVITY” (GLYCOM A/S, priority 2016, published 2022).
# Assays:
# Format in all cases: cell-based
# Conditions in all cases: 5 mg HMO/ml, compared to control cultures
# [1] = test system: CHST5 expression in human LS174T cells; assay: Example 3: goblet cell gene expression by quantitative RT-PCR, CHST5
# Experimental: (§1) 2′-FL and LNnT are tested with respect to their ability to induce MUC2, TFF3, EIMβ, CHST5, and GAL3ST2 expression in the human LS174T cell culture model of goblet cells. The human LS174T cell line is obtained from the American Type Culture Collection (ATCC). LS174T cells are maintained in minimum essential medium (MEM) supplemented according to instructions at 37° C. in air containing 5% of CO2. 2′-FL and LNnT are dissolved in cell culture grade water to the required concentration. The LS174T cells are treated with the HMO solution containing 0 or 5 mg HMO/ml. The LS174T cells are collected and suspended in Trizol reagent and total RNA is isolated using an RNA analysis kit (Qiagen) according to the manufacturer's instructions and the RNA isolates are quantified using Nanodrop analysis (Thermo Fisher Scientific). RNA isolates are reverse transcribed using a high capacity cDNA Reverse Transcription Kit (Applied Biosystems) to create cDNA, which is then used to assess gene expression via quantitative RT-PCR. For the quantitative RT-PCR, specific TaqMAN gene expression assays are obtained from Applied Biosystems, which include expression assays for MUC2, TFF3, CHST5 and GAL3ST2. Quantitative real-time PCR is performed using TaqMAN PCR Master Mix (Applied Biosystems). […] The results are analysed using SDS 2.3 software and calculated by delta Ct method. […]
# [2] = test system: GAL3ST2 expression in human LS174T cells; assay: Example 3: goblet cell gene expression by quantitative RT-PCR, GAL3ST2
# Experimental: as §1
# [3] = test system: TFF3 expression in human LS174T cells; assay: Example 3: goblet cell gene expression by quantitative RT-PCR, TFF3
# Experimental: as §1
# [4] = test system: MUC2 expression in human LS174T cells; assay: Example 3: goblet cell gene expression by quantitative RT-PCR, MUC2
# Experimental: as §1
smiles,measurement,setting,value
"CC(=O)N[C@H]1[C@H](O[C@H]2[C@@H](O)[C@@H](CO)O[C@@H](O[C@H]3[C@H](O)[C@@H](O)C(O)O[C@@H]3CO)[C@@H]2O)O[C@H](CO)[C@@H](O[C@@H]2O[C@H](CO)[C@H](O)[C@H](O)[C@H]2O)[C@@H]1O (mixture of isomers) [LNnT, lacto-N-neotetraose]",CHST5 gene expression,[1],minimal induction
same,GAL3ST2 gene expression,[2],lack of induction
same,TFF3 gene expression,[3],increases the expression
same,MUC2 gene expression,[4],increases the expression
